Test results as given in patent US20230092001A1, “FURANEOL GLYCOSIDE COMPOUND, PHARMACEUTICAL COMPOSITION THEREOF, PREPARATION METHOD THEREFOR, AND APPLICATION THEREOF” (priority 2019, published 2023).

Tests used:
[1] = system: ulcerative colitis model (dextran sodium sulphate); experiment: Effect Example 1: therapeutic effect on ulcerative colitis, dextran sodium sulphate model, injected treatment, 14 days; type: in vivo, C57 mice; settings: for Average colon length of mice / Average colon weight of mice / Unit colon weight of mice (colon weight/colon length): day 14
Description: Thirty 10-week-old male C57 mice, SPF class animal house, temperature 20-26° C., humidity 40%-70%, alternating light-dark periods (12 h/12 h).
(§1) Quarantine-qualified animals with similar weights were selected for the experiment.
Mice in the blank control group were given normal drinking water throughout the experiment. The other 5 groups of mice were given drinking water containing 2% dextran sodium sulphate (DSS) from day 1 to day 5, normal drinking water from day 6 to day 7, drinking water containing 2% dextran sodium sulphate from day 8 to day 12, and normal drinking water from day 13 to day 14. The experiment ended on day 14.
Animals in the blank control group and ulcerative colitis model group were given sterile water intraperitoneally from day 1, once a day; the other 4 groups were administered according to table 1, once a day, until the end of the experiment on day 14. Two hours after the first day of administration, the mice were started to drink water containing dextran sodium sulphate.
(§2) (1) The mice were weighed daily.
(2) Blood samples were collected from the orbital vein on day 14 and stored at −80° C.
(3) On day 14, the mice were sacrificed by cervical vertebra dislocation, the colon was removed and a small amount of fecal was taken from the colon and left as a sample. The colon length and colon weight were measured. A portion of the colon and the fecal sample was stored at −80° C.

[2] = system: ulcerative colitis model (dextran sodium sulphate); experiment: Effect Example 3: therapeutic effect on ulcerative colitis, dextran sodium sulphate model, oral gavage, 7 days; type: in vivo, C57 mice; settings: 40 mg/kg oral gavage
Description: Fifty 10-week-old male C57 mice, SPF class animal house, temperature 20-26° C., humidity 40%-70%, alternating light-dark periods (12 h/12 h).
as §1
Mice in the blank control group were given normal drinking water throughout the experiment. The other 9 groups of mice were given drinking water containing 2% dextran sodium sulphate from day 1 to day 7. All groups were administered by oral gavage once a day according to table 10, until the end of the experiment.
as §2
(2) Blood samples were collected from the orbital vein on day 7 and stored at −80° C.
(3) On day 7, the mice were sacrificed by cervical vertebra dislocation, the colon was removed and a small amount of fecal was taken from the colon and left as a sample. The colon length and colon weight were measured. A portion of the colon and the fecal sample was stored at −80° C.

[3] = Day 1, high-dose treatment group 40 mg/kg intraperitoneal injection
[4] = Day 1, low-dose treatment group 10 mg/kg intraperitoneal injection
[5] = Day 1, middle-dose treatment group 20 mg/kg intraperitoneal injection
[6] = Day 2, high-dose treatment group 40 mg/kg intraperitoneal injection
[7] = Day 2, low-dose treatment group 10 mg/kg intraperitoneal injection
[8] = Day 2, middle-dose treatment group 20 mg/kg intraperitoneal injection
[9] = Day 3, high-dose treatment group 40 mg/kg intraperitoneal injection
[10] = Day 3, low-dose treatment group 10 mg/kg intraperitoneal injection
[11] = Day 3, middle-dose treatment group 20 mg/kg intraperitoneal injection
[12] = Day 4, high-dose treatment group 40 mg/kg intraperitoneal injection
[13] = Day 4, low-dose treatment group 10 mg/kg intraperitoneal injection
[14] = Day 4, middle-dose treatment group 20 mg/kg intraperitoneal injection
[15] = Day 5, high-dose treatment group 40 mg/kg intraperitoneal injection
[16] = Day 5, low-dose treatment group 10 mg/kg intraperitoneal injection
[17] = Day 5, middle-dose treatment group 20 mg/kg intraperitoneal injection
[18] = Day 6, high-dose treatment group 40 mg/kg intraperitoneal injection
[19] = Day 6, low-dose treatment group 10 mg/kg intraperitoneal injection
[20] = Day 6, middle-dose treatment group 20 mg/kg intraperitoneal injection
[21] = Day 7, high-dose treatment group 40 mg/kg intraperitoneal injection
[22] = Day 7, low-dose treatment group 10 mg/kg intraperitoneal injection
[23] = Day 7, middle-dose treatment group 20 mg/kg intraperitoneal injection
[24] = Day 8, high-dose treatment group 40 mg/kg intraperitoneal injection
[25] = Day 8, low-dose treatment group 10 mg/kg intraperitoneal injection
[26] = Day 8, middle-dose treatment group 20 mg/kg intraperitoneal injection
[27] = Day 9, high-dose treatment group 40 mg/kg intraperitoneal injection
[28] = Day 9, low-dose treatment group 10 mg/kg intraperitoneal injection
[29] = Day 9, middle-dose treatment group 20 mg/kg intraperitoneal injection
[30] = Day 10, high-dose treatment group 40 mg/kg intraperitoneal injection
[31] = Day 10, low-dose treatment group 10 mg/kg intraperitoneal injection
[32] = Day 10, middle-dose treatment group 20 mg/kg intraperitoneal injection
[33] = Day 11, high-dose treatment group 40 mg/kg intraperitoneal injection
[34] = Day 11, low-dose treatment group 10 mg/kg intraperitoneal injection
[35] = Day 11, middle-dose treatment group 20 mg/kg intraperitoneal injection
[36] = Day 12, high-dose treatment group 40 mg/kg intraperitoneal injection
[37] = Day 12, low-dose treatment group 10 mg/kg intraperitoneal injection
[38] = Day 12, middle-dose treatment group 20 mg/kg intraperitoneal injection
[39] = Day 13, high-dose treatment group 40 mg/kg intraperitoneal injection
[40] = Day 13, low-dose treatment group 10 mg/kg intraperitoneal injection
[41] = Day 13, middle-dose treatment group 20 mg/kg intraperitoneal injection
[42] = Day 14, high-dose treatment group 40 mg/kg intraperitoneal injection
[43] = Day 14, low-dose treatment group 10 mg/kg intraperitoneal injection
[44] = Day 14, middle-dose treatment group 20 mg/kg intraperitoneal injection
[45] = high-dose treatment group 40 mg/kg intraperitoneal injection
[46] = low-dose treatment group 10 mg/kg intraperitoneal injection
[47] = middle-dose treatment group 20 mg/kg intraperitoneal injection
[48] = intraperitoneal injection 10, 20, 40 mg/kg, vs ulcerative colitis model group

`CC(C)=C1OC(C)=C(O[C@@H]2O[C@H](CO)[C@@H](O)[C@H](O)[C@H]2O)C1=O` [Compound I-1, 4-O-β-D-glucosyl-5-methyl-2-(1-methylethylidene)-3(2H)-furanone] was tested, and the “Average weight of mice” value [1, 3] was 27.6 g, the “Rate of change in weight of mice” value [1, 3] was 100.0% and the “Average weight of mice” value [1, 4] was 27.9 g. The “Rate of change in weight of mice” value [1, 4] was 100.0%, the “Average weight of mice” value [1, 5] was 27.8 g and the “Rate of change in weight of mice” value [1, 5] was 100.0%. For the same compound, the “Average weight of mice” value [1, 6] was 27.6 g, the “Rate of change in weight of mice” value [1, 6] was 99.9% and the “Average weight of mice” value [1, 7] was 28.1 g. For the same compound, the “Rate of change in weight of mice” value [1, 7] was 100.6%, the “Average weight of mice” value [1, 8] was 27.8 g and the “Rate of change in weight of mice” value [1, 8] was 100.1%. The “Average weight of mice” value [1, 9] was 27.6 g, the “Rate of change in weight of mice” value [1, 9] was 100.0% and the “Average weight of mice” value [1, 10] was 28.0 g. For the same compound, the “Rate of change in weight of mice” value [1, 10] was 100.5%, the “Average weight of mice” value [1, 11] was 27.9 g and the “Rate of change in weight of mice” value [1, 11] was 100.3%. For the same compound, the “Average weight of mice” value [1, 12] was 27.6 g, the “Rate of change in weight of mice” value [1, 12] was 100.0% and the “Average weight of mice” value [1, 13] was 28.0 g. The “Rate of change in weight of mice” value [1, 13] was 100.3%, the “Average weight of mice” value [1, 14] was 27.9 g and the “Rate of change in weight of mice” value [1, 14] was 100.3%. The “Average weight of mice” value [1, 15] was 27.3 g, the “Rate of change in weight of mice” value [1, 15] was 99.1% and the “Average weight of mice” value [1, 16] was 27.2 g. For the same compound, the “Rate of change in weight of mice” value [1, 16] was 97.6%, the “Average weight of mice” value [1, 17] was 27.5 g and the “Rate of change in weight of mice” value [1, 17] was 99.1%. For the same compound, the “Average weight of mice” value [1, 18] was 27.2 g, the “Rate of change in weight of mice” value [1, 18] was 98.7% and the “Average weight of mice” value [1, 19] was 26.3 g. The “Rate of change in weight of mice” value [1, 19] was 94.3%, the “Average weight of mice” value [1, 20] was 27.2 g and the “Rate of change in weight of mice” value [1, 20] was 97.8%. For the same compound, the “Average weight of mice” value [1, 21] was 26.8 g, the “Rate of change in weight of mice” value [1, 21] was 97.0% and the “Average weight of mice” value [1, 22] was 25.9 g. The “Rate of change in weight of mice” value [1, 22] was 93.0%, the “Average weight of mice” value [1, 23] was 26.7 g and the “Rate of change in weight of mice” value [1, 23] was 96.0%. For the same compound, the “Average weight of mice” value [1, 24] was 26.3 g, the “Rate of change in weight of mice” value [1, 24] was 95.3% and the “Average weight of mice” value [1, 25] was 25.6 g. For the same compound, the “Rate of change in weight of mice” value [1, 25] was 91.6%, the “Average weight of mice” value [1, 26] was 26.2 g and the “Rate of change in weight of mice” value [1, 26] was 94.3%. For the same compound, the “Average weight of mice” value [1, 27] was 25.8 g, the “Rate of change in weight of mice” value [1, 27] was 93.5% and the “Average weight of mice” value [1, 28] was 25.3 g. For the same compound, the “Rate of change in weight of mice” value [1, 28] was 90.8%, the “Average weight of mice” value [1, 29] was 25.9 g and the “Rate of change in weight of mice” value [1, 29] was 93.2%. The “Average weight of mice” value [1, 30] was 25.6 g, the “Rate of change in weight of mice” value [1, 30] was 92.7% and the “Average weight of mice” value [1, 31] was 24.9 g. The “Rate of change in weight of mice” value [1, 31] was 89.1%, the “Average weight of mice” value [1, 32] was 25.6 g and the “Rate of change in weight of mice” value [1, 32] was 92.2%. The “Average weight of mice” value [1, 33] was 25.5 g, the “Rate of change in weight of mice” value [1, 33] was 92.2% and the “Average weight of mice” value [1, 34] was 24.4 g. For the same compound, the “Rate of change in weight of mice” value [1, 34] was 87.5%, the “Average weight of mice” value [1, 35] was 25.3 g and the “Rate of change in weight of mice” value [1, 35] was 91.1%. The “Average weight of mice” value [1, 36] was 25.4 g, the “Rate of change in weight of mice” value [1, 36] was 92.0% and the “Average weight of mice” value [1, 37] was 24.1 g. The “Rate of change in weight of mice” value [1, 37] was 86.4%, the “Average weight of mice” value [1, 38] was 25.0 g and the “Rate of change in weight of mice” value [1, 38] was 90.0%. The “Average weight of mice” value [1, 39] was 25.3 g, the “Rate of change in weight of mice” value [1, 39] was 91.5% and the “Average weight of mice” value [1, 40] was 23.8 g. The “Rate of change in weight of mice” value [1, 40] was 85.3%, the “Average weight of mice” value [1, 41] was 24.8 g and the “Rate of change in weight of mice” value [1, 41] was 89.2%. The “Average weight of mice” value [1, 42] was 25.2 g, the “Rate of change in weight of mice” value [1, 42] was 91.4% and the “Average weight of mice” value [1, 43] was 23.7 g. The “Rate of change in weight of mice” value [1, 43] was 84.9%, the “Average weight of mice” value [1, 44] was 24.7 g and the “Rate of change in weight of mice” value [1, 44] was 88.8%. For the same compound, the “Average colon length of mice” value [1, 45] was 6.52 cm, the “Average colon weight of mice” value [1, 45] was 0.2129 g and the “Unit colon weight of mice (colon weight/colon length)” value [1, 45] was 0.0327 g/cm. For the same compound, the “Average colon length of mice” value [1, 46] was 5.46 cm, the “Average colon weight of mice” value [1, 46] was 0.1909 g and the “Unit colon weight of mice (colon weight/colon length)” value [1, 46] was 0.0351 g/cm. For the same compound, the “Average colon length of mice” value [1, 47] was 6.04 cm, the “Average colon weight of mice” value [1, 47] was 0.2115 g and the “Unit colon weight of mice (colon weight/colon length)” value [1, 47] was 0.0351 g/cm. The “Colon length compared with the positive control group (in words)” value ([1]; high-dose treatment group 40 mg/kg intraperitoneal injection vs cyclosporine A 50 mg/kg) was “even better than the positive control group”, the “Effect on the length of the colon (in words)” value [1, 48] was “could gradually restore the length of the colon to normal” and the “Effect on the reduction in the weight of mice (in words)” value [1, 48] was “significant ameliorating effect on the reduction in the weight of mice”. The “Effect on the unit colon weight (in words)” value [1, 48] was “could significantly improve the unit colon weight”, the “Effect on the colon length (in words)” value [2] was “can gradually restore the colon length” and the “Average weight of mice” value ([2]; Day 1) was 21.33 g. The “Average weight of mice” value ([2]; Day 2) was 20.97 g, the “Average weight of mice” value ([2]; Day 3) was 20.80 g and the “Average weight of mice” value ([2]; Day 4) was 20.85 g. The “Average weight of mice” value ([2]; Day 5) was 20.53 g, the “Average weight of mice” value ([2]; Day 6) was 20.13 g and the “Average weight of mice” value ([2]; Day 7) was 19.82 g. The “Average colon length of mice” value ([2]; day 7) was 6.2 cm.
